In patent US12545673B2, “Imidazopyridine derivative and pharmaceutical composition comprising same as active ingredient” (TSD LIFE SCIENCES CO., LTD., priority 2019, dated 2026):
Like-named read-outs stand apart in the source and are kept apart here.

How the values were obtained:
MLK1 = MLK1 (Homo sapiens (Human), UniProt P80192); assay: Evaluation of inhibitory activity of enzyme units, MLK1 ([γ-33P]-ATP filter assay); assay type: biochemical
[1] = system: acute myeloid leukemia cell line U937; assay: Cancer cell proliferation inhibitory activity evaluation 2 (CCK-8), U937; assay type: cell-based; settings: Homo sapiens, read-out: Cancer cell proliferation inhibitory activity U937
Method: (§1) In order to identify whether the compounds have anticancer activity, the acute myeloid leukemia cell line U937, the acute lymphoblastic leukemia cell line Jurkat, the gastric cancer cell lines AGS, […], and the human lung cancer cell line A549 were used. The cell line was cultured using RPMI-1640 medium (U937, Jurkat, AGS, A549) or DMEM (Hs746T) medium containing 10% fetal bovine serum. Welgene products were used as the medium, and hyclone products were used for fetal bovine serum, and 1% of antibiotics for cell culture from Gibco were used as the culture medium.

[2] = system: human lung cancer cell line A549; assay: Cancer cell proliferation inhibitory activity evaluation 2 (CCK-8), A549; assay type: cell-based
Method: as §1

[3] = system: gastric cancer cell line Hs746T; assay: Cancer cell proliferation inhibitory activity evaluation 2 (CCK-8), Hs746T; assay type: cell-based; settings: Homo sapiens
Method: as §1

[4] = system: gastric cancer cell line AGS; assay: Cancer cell proliferation inhibitory activity evaluation 2 (CCK-8), AGS; assay type: cell-based; settings: Homo sapiens, read-out: Cancer cell proliferation inhibitory activity AGS
Method: as §1

MLK3 = MLK3 (Homo sapiens (Human), UniProt Q16584); assay: Evaluation of inhibitory activity of enzyme units, MLK3 ([γ-33P]-ATP filter assay); settings: read-out: IC50(nM) MLK3
MLK3, sequence (Q16584 whole entry, looked up): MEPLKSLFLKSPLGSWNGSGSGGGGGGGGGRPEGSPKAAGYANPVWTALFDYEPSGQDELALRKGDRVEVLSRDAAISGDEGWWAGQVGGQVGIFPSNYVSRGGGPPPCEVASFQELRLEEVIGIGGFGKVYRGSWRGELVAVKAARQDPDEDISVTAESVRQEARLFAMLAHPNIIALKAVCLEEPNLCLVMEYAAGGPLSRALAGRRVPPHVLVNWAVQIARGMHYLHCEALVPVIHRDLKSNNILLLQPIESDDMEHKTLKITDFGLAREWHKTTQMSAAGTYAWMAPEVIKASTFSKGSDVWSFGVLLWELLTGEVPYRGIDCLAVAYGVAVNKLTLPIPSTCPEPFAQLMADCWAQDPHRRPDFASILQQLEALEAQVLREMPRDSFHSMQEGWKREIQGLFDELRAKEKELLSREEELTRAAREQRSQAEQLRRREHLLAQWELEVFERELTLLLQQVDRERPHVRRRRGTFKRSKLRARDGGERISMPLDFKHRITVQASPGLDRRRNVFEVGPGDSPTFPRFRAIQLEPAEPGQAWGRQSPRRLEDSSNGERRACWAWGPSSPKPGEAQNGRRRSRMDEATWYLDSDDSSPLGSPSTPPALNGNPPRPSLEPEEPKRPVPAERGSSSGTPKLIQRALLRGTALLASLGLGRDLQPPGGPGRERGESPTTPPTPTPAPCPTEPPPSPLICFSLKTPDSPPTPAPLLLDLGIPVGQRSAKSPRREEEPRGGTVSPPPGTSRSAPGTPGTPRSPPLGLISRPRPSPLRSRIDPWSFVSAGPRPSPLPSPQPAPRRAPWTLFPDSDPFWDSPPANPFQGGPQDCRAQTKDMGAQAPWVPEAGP

[5] = system: acute lymphoblastic leukemia cell line Jurkat; assay: Cancer cell proliferation inhibitory activity evaluation 2 (CCK-8), Jurkat; assay type: cell-based; settings: Homo sapiens
Method: as §1

[6] = A549, 72 h, read-out: Cancer cell proliferation inhibitory activity A549
[7] = 72 h, read-out: Cancer cell proliferation inhibitory activity Hs746T
[8] = 72 h, read-out: Cancer cell proliferation inhibitory activity Jurkat
[9] = U-937, 10 μM, 72 hours, CCK-8 (Table 3)
[10] = A549, 10 μM, 72 hours, CCK-8, read-out: Cancer cell proliferation inhibitory activity A549
[11] = 10 μM, 72 hours, CCK-8, read-out: Cancer cell proliferation inhibitory activity Hs746T
[12] = 10 μM, 72 hours, CCK-8, read-out: Cancer cell proliferation inhibitory activity Jurkat

MLK1, sequence (P80192 whole entry, looked up): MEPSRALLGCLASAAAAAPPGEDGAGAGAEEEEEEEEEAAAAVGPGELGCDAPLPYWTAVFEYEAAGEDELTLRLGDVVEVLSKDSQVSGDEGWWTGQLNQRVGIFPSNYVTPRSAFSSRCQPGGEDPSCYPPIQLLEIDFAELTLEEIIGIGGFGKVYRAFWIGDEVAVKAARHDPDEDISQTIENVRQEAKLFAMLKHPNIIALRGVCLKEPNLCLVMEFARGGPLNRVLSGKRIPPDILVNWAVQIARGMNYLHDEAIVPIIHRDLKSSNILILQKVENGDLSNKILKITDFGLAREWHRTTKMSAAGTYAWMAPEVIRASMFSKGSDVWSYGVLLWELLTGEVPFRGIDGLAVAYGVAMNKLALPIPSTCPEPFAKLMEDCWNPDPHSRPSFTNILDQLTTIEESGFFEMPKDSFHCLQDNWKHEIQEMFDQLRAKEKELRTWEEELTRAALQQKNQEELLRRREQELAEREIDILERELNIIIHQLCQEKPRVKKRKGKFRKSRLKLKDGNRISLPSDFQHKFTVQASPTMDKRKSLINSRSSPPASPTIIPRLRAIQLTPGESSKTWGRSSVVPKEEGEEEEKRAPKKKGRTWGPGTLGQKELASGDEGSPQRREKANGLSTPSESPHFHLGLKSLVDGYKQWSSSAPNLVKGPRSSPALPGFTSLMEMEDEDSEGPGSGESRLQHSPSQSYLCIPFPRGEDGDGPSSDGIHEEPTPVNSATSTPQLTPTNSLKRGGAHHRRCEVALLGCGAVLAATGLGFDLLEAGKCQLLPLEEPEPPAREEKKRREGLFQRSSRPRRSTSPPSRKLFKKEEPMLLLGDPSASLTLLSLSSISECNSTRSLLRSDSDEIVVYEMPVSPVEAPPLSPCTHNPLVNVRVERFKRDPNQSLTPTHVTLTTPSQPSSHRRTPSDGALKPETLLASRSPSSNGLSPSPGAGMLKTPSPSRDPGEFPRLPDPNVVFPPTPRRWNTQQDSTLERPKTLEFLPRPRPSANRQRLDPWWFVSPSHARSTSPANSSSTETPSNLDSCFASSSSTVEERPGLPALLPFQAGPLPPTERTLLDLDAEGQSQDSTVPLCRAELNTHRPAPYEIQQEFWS

SMILES | IC50 (MLK1) [nM] | inhibition at 10 µM ([1]; U-937, 72 h) [%] | inhibition at 10 µM [2, 6] [%] | inhibition at 10 µM [3, 7] [%] | inhibition at 10 µM ([4]; 72 h) [%] | IC50 (MLK3) [nM] | inhibition at 10 µM [5, 8] [%] | inhibition at 10 µM [1, 9] [%] | inhibition at 10 µM [2, 10] [%] | inhibition at 10 µM [3, 11] [%] | inhibition at 10 µM ([4]; 10 μM, 72 hours, CCK-8) [%] | inhibition at 10 µM [5, 12] [%]
CCS(=O)(=O)N1CC[C@H](Nc2c(Br)cnc3nc(-c4cc(C)n(-c5cccc(NC(=O)CN6CCOCC6)c5)c4C)[nH]c23)C1 [Example 66, (S)—N-(3-(3-(6-bromo-7-((1-(ethylsulfonyl)pyrrolidine-3-yl)amino)-1H-imidazo[4,5-b]pyridine-2-yl)-2,5-dimethyl-1H-pyrrol-1-yl)phenyl)-2-morpholinoacetamide] | 22 | 10 to 50 | 10 to 50 | > 50 | > 50 | 17 | > 50 | – | – | – | – | –
CCS(=O)(=O)N1CC[C@H](Nc2c(Br)cnc3nc(-c4cc(C)n(-c5cc(C(=O)N6CCOCC6)ccc5C)c4C)[nH]c23)C1 [Example 91, (3-(3-(6-bromo-7-(((S)-1-(ethylsulfonyl)pyrrolidine-3-yl)amino)-1H-imidazo[4,5-b]pyridine-2-yl)-2,5-dimethyl-1H-pyrrol-1-yl)-4-methylphenyl) (morpholino) methanone] | 19 | > 50 | > 50 | > 50 | > 50 | 25 | > 50 | – | – | – | – | –
CCS(=O)(=O)N1CC[C@H](Nc2c(Br)cnc3nc(-c4cc(C)n(-c5cc(NC(=O)CN(C)C)ccc5C)c4C)[nH]c23)C1 [Example 74, N-(3-(3-(6-bromo-7-(((S)-1-(ethylsulfonyl)pyrrolidine-3-yl)amino)-1H-imidazo[4,5-b]pyridine-2-yl)-2,5-dimethyl-1H-pyrrol-1-yl)-4-methylphenyl)-2-(dimethylamino) acetamide] | 43 | – | – | – | – | 46 | – | > 50 | > 50 | > 50 | > 50 | > 50
CCS(=O)(=O)N1CC[C@H](Nc2c(Br)cnc3nc(-c4cc(C)n(-c5ccc(NC(=O)CN6CCOCC6)cc5C)c4C)[nH]c23)C1 [Example 77, N—(4-(3-(6-bromo-7-(((S)-1-(ethylsulfony)pyrolidine-3-yl)amino)-1H-imidazo[4,5-b]pyridine-2-yl)-2,5-dimethyl-1H-pyrrol-1-yl)-3-methylphenyl)-2-morpholinoacetamide] | 19 | – | – | – | – | 7 | – | > 50 | 10 to 50 | 10 to 50 | > 50 | > 50
CCS(=O)(=O)N1CC[C@H](Nc2c(Cl)cnc3[nH]c(-c4cc(C)n(-c5cc(NS(C)(=O)=O)ccc5C)c4C)nc23)C1 [Example 51, N-(3-(3-(6-chloro-7-(((S)-1-(ethylsulfonyl)pyrrolidine-3-yl)amino)-3H-imidazo[4,5-b]pyridine-2-yl)-2,5-dimethyl-1H-pyrrol-1-yl)-4-methylphenyl) methanesulfonamide] | 53 | – | – | – | – | 330 | – | > 50 | 10 to 50 | > 50 | – | > 50
CCS(=O)(=O)N1CC[C@H](Nc2c(Br)cnc3nc(-c4cc(C)n(-c5cc(NC(=O)CCN(C)C)ccc5C)c4C)[nH]c23)C1 [Example 80] | – | – | – | – | – | – | – | > 50 | > 50 | > 50 | > 50 | > 50
CCS(=O)(=O)N1CC[C@H](Nc2c(Cl)cnc3nc(-c4cc(C)n(-c5ccc(OCCN6CCOCC6)cc5)c4C)[nH]c23)C1 [Example 52, (S)-6-chloro-2-(2,5-dimethyl-1-(4-(2-morpholinoethoxy)phenyl)-1H-pyrrol-3-yl)-N-(1-(ethylsulfonyl)pyrrolidine-3-yl)-1H-imidazo[4,5-b]pyridine-7-amine] | 87 | – | – | – | – | 324 | – | > 50 | 10 to 50 | > 50 | – | > 50
CCS(=O)(=O)N1CC[C@H](Nc2c(Br)cnc3[nH]c(-c4cc(C)n(-c5cccc(NS(C)(=O)=O)c5C)c4C)nc23)C1 [Example 9, N-(3-(3-(6-bromo-7-(((S)-1-(ethylsulfonyl)pyrrolidine-3-yl)amino)-3H-imidazo[4,5-b]pyridine-2-yl)-2,5-dimethyl-1H-pyrrol-1-yl)-2-methylphenyl) methanesulfonamide] | – | > 50 | > 50 | > 50 | > 50 | 10 | > 50 | – | – | – | – | –
CCS(=O)(=O)N1CC[C@H](Nc2c(Br)cnc3[nH]c(-c4cc(C)n(-c5ccc(C(=O)O)cc5)c4C)nc23)C1 [Example 59, (S)-4-(3-(6-bromo-7-((1-(ethylsulfonyl)pyrrolidine-3-yl)amino)-3H-imidazo[4,5-b]pyridine-2-yl)-2,5-dimethyl-1H-pyrrol-1-yl)benzoic acid] | – | 10 to 50 | < 10 | 10 to 50 | < 10 | 19 | 10 to 50 | – | – | – | – | –
CCN(CC)CCNC(=O)c1cccc(-n2c(C)cc(-c3nc4ncc(Br)c(N[C@H]5CCN(S(=O)(=O)CC)C5)c4[nH]3)c2C)c1 [Example 56, (S)-3-(3-(6-bromo-7-((1-(ethylsulfonyl)pyrrolidine-3-yl)amino)-1H-imidazo[4,5-b]pyridine-2-yl)-2,5-dimethyl-1H-pyrrol-1-yl)-N-(2-(diethylamino)ethyl)benzamide] | – | – | – | – | – | 122 | – | > 50 | > 50 | > 50 | > 50 | > 50
CCN(CC)CCNC(=O)c1ccc(-n2c(C)cc(-c3nc4ncc(Br)c(N[C@H]5CCN(S(=O)(=O)CC)C5)c4[nH]3)c2C)cc1 [Example 57, (S)-4-(3-(6-bromo-7-((1-(ethylsulfonyl)pyrrolidine-3-yl)amino)-1H-imidazo[4,5-b]pyridine-2-yl)-2,5-dimethyl-1H-pyrrol-1-yl)-N-(2-(diethylamino)ethyl)benzamide] | – | > 50 | > 50 | > 50 | > 50 | 97 | > 50 | – | – | – | – | –
CCS(=O)(=O)N1CC[C@H](Nc2c(Br)cnc3[nH]c(-c4cc(C)n(-c5ccc(NS(C)(=O)=O)cc5C)c4C)nc23)C1 [Example 8, N-(4-(3-(6-bromo-7-(((S)-1-(ethylsulfonyl)pyrrolidine-3-yl)amino)-3H-imidazo[4,5-b]pyridine-2-yl)-2,5-dimethyl-1H-pyrrol-1-yl)-3-methylphenyl) methanesulfonamide] | – | > 50 | > 50 | > 50 | > 50 | 7 | > 50 | – | – | – | – | –
CCS(=O)(=O)N1CC[C@H](Nc2c(Br)cnc3[nH]c(-c4cc(C)n(-c5cccc(C(=O)NCN(C)C)c5)c4C)nc23)C1 [Example 60, (S)-3-(3-(6-bromo-7-((1-(ethylsulfonyl)pyrrolidine-3-yl)amino)-3H-imidazo[4,5-b]pyridine-2-yl)-2,5-dimethyl-1H-pyrrol-1-yl)-N-((dimethylamino)methyl)benzamide] | – | > 50 | > 50 | > 50 | > 50 | 27 | > 50 | – | – | – | – | –
